Test results: US7297712B2, “Cationic amphiphiles for intracellular delivery of therapeutic molecules and its composition, process and method of treatment” (Council of Scientific and Industrial Research, priority 2002, dated 2007)

Test system: COS-1 cells
Test: Cell transfection, β-galactosidase reporter gene activity
Format: cell-based
Conditions: pCMV β-gal plasmid 0.15 μg, lipid:DNA charge ratios 0.1:1 to 9:1, compared with DMRIE, FIG. 1
Experimental: Similar examples of plasmid include PGL-2 and PGL-3 of Promega and others.
Cell Transfection. COS-1 cells were seeded at a density of 15,000 cells/well in a 96-well plate eighteen hours before the transfection. 0.15 μg of plasmid DNA was complexed with varying amount of lipid (0.05-4.3 nmoles) in 13 μl of plain DMEM medium for 30 min. The charge ratios were varied from 0.1:1 to 9:1 (+/−) over this range of the lipid. The complex was diluted to 100 μl with plain DMEM and added to the wells. After 3 h of incubation, 100 μl of DMEM with 10% FCS was added to the cells. The medium was changed to 10% complete medium after 24 h and the reporter gene activity was estimated after 48 h. The cells were washed twice with PBS and lysed in 50 μl of lysis buffer (0.25 M Tris.HCl, pH 8.0 and 0.5% NP40). Care was taken to ensure complete lysis. The β-galactosidase activity per well was estimated by adding 50 μl of 2× substrate solution (1.33 mg/ml of ONPG, 0.2 M sodium phosphate, pH 7.15 and 2 mM magnesium chloride) to the lysate in a 96-well plate. Absorption at 405 nm was converted to β-galactosidase units by using calibration curve constructed with pure commercial β-galactosidase enzyme. The values of β-galactosidase units in replicate plates assayed on the same day varied by less than 30%. […]

Row | SMILES | in vitro transfection efficiency
1 | CCCCCCCCCCCCCC[N+]1(CCCCCCCCCCCCCC)CC(O)C(O)C1 (stereo not drawn) [lipid 2, N,N-di-n-tetradecyl-3,4-dihydroxy pyrrolidinium chloride] | comparable to or better than that of DMRIE

Test system: EtBr:pCMV β-gal complex (DNA)
Test: Lipid:DNA interactions assay (ethidium bromide exclusion fluorescence)
Format: binding
Conditions: titration of EtBr:DNA complex with lipid, TE buffer pH 8.0, FIG. 2
From the text: Lipid:DNA Interactions Assay. Intercalation-induced fluorescence increase and competition with cationic lipids to bind to DNA has made Ethidium Bromide (EtBr) an excellent tool to study cationic lipid-DNA interactions. To assess the representative lipid:DNA interactions for the cationic lipids of the present invention, we have titrated the EtBr:pCMV β-gal complex with increasing amounts of cationic lipids 1-5.
The extent of Et.Br binding to the DNA was monitored by the changes in the fluorescence. EtBr fluorescence was monitored in Hitachi 4500 fluorimeter by setting the excitation wavelength at 518 nm and emission wavelength at 585 nm. To one ml of TE buffer (pH 8.0), 0.78 nmoles of DNA and 2.5 nmoles of EtBr were added. The change in fluorescence was monitored after adding small volumes of lipids 1-5 to the EtBr:DNA complex. Arbitrary fluorescence values were recorded after allowing sufficient time for equilibration. […] Percent fluorescence was calculated considering the fluorescence value in the absence of lipid as 100.

Row | SMILES | lipid:DNA interaction (ability to exclude ethidium bromide from DNA)
2 | CCCCCCCC/C=C\CCCCCCCC[N+]1(CCCCCCCCCCCCCCCCCC)CC(O)C(O)C1 (stereo not drawn) [lipid 5, N-n-octadecyl-N-oleyl-3,4 dihydroxy pyrrolidinium chloride] | interact poorly with DNA
3 | CCCCCCCCCCCCCCCCCC[N+]1(CCCCCCCCCCCCCCCCCC)CC(O)C(O)C1 (stereo not drawn) [lipid 4, N,N-di-n-octadecyl-3,4-dihydroxy pyrrolidinium chloride] | interact poorly with DNA
4 | CCCCCCCCCCCCCCCC[N+]1(CCCCCCCCCCCCCCCC)CC(O)C(O)C1 (stereo not drawn) [lipid 3, N,N-di-n-hexadecyl-3,4-dihydroxy pyrrolidinium chloride] | interact with DNA equally well up to lipid:DNA ratio of 1.25 or so
5 | CCCCCCCCCCCC[N+]1(CCCCCCCCCCCC)CC(O)C(O)C1 (stereo not drawn) [lipid 1, N,N-di-n-dodecyl-3,4-dihydroxy pyrrolidinium chloride] | interact poorly with DNA
6 | CCCCCCCCCCCCCC[N+]1(CCCCCCCCCCCCCC)CC(O)C(O)C1 (stereo not drawn) [lipid 2, N,N-di-n-tetradecyl-3,4-dihydroxy pyrrolidinium chloride] | interact with DNA equally well up to lipid:DNA ratio of 1.25 or so
